Assay results taken from patent publication US5629007A, “Method of preventing prostatic cancer development” (priority 1995, dated 1997).

biological target: T1, Human Type I Steroid 5α-Reductase (Homo sapiens, UniProt P18405); assay: Human 5α-Reductase Homogenate Assay (Type I, human scalp): conversion of [3H]-testosterone to 5α-reduced metabolites; type: biochemical; conditions: 0.3 μM test compound, compared to control reaction mixtures; 50 nM [3H]-testosterone, pH 7.5, 25°, 180 min
T1 construct: Scalp punch biopsies from graft recipient sites were obtained; from tissue; host or cells: human scalp punch biopsies (hair transplant graft recipient sites), homogenate, resuspended 100,000×g pellet
T1 sequence (P18405 1-259): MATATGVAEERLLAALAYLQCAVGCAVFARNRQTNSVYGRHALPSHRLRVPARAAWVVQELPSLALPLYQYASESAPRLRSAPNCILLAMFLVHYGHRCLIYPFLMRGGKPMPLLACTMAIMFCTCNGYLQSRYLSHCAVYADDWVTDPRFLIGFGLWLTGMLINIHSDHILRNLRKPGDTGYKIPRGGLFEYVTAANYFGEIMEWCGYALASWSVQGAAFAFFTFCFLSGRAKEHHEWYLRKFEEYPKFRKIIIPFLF
Text: Methodology of Human Type I Steroid 5α-Reductase Assays
Approximately 60-75 punches from one surgical procedure were used to generate an enzyme preparation. The subcutaneous tissue was cut away and discarded. The skin was frozen with liquid nitrogen and pulverized to powder. […] The homogenization procedure consisted of four 15 second pulses. Connective tissue was cleared from the probe with forceps between pulses. […] The pellet was resuspended by homogenization with a Dounce homogenizer using the same buffer solution. An aliquot was taken for protein determination by the Lowry method, Lowry, et al., Protein Measurement with the Folin Phenol Reagent, J. Biol. Chem., 193, 265-75 (1951). Aliquots of the enzyme preparation were stored at -80° until use.
The reaction was initiated by the addition of 0.5 mg of Type I 5α-reductase. The reaction mixture was incubated at 25° for 180 min, and terminated by the addition of 1 mL ice-cold stopping solution. […] The samples were prepared for high performance liquid chromatography by solid phase extraction. […] The reaction mixtures were then applied to the columns. The columns were subsequently washed with 5 mL of acetone:water (1:4), followed by 0.3 mL of methanol. The samples were then eluted with 3 mL of methanol and collected in 20 mL scintillation vials. […] The column temperature was maintained at 35° and the flow rate was 1.5 mL/min.

Row | Compound | percent inhibition of Type I 5AR [%]
1 | CN1C(=O)CC[C@]2(C)c3ccc(Sc4nc5c(ccc6ccccc65)s4)cc3CC[C@@H]12 [Example 163, (+)-(4aR)-(10bR)-4-methyl-8-(2-naphtho<1,2-d>-thiazolylthio)-10b-methyl-1,2,3,4,4a,5,6,10b-octahydrobenzo[f]-quinolin-3-one] | 80
2 | C[C@]12CCC(=O)N[C@@H]1CCc1cc(-c3cnc4ccccc4c3)ccc12 [Example 196, (+)-(4aR)-(10bR)-8-(3-quinolinyl)-10b-methyl-1,2,3,4,4a,5,6,10b-octahydrobenzo[f]quinolin-3-one] | 11
3 | CN1C(=O)CC[C@]2(C)c3ccc(-c4ccc(-c5ccc(NC(=O)C(C)(C)C)s5)cc4)cc3CC[C@@H]12 [Example 222, (+)-(4aR)-(10bR)-4-methyl-8-(4-[(2-t-butylcarbonylamino]-5-thienyl]phenyl)-10b-methyl-1,2,3,4,4a,5,6,10b-octahydrobenzo[f]quinolin-3-one] | 86
4 | CN1C(=O)CC[C@]2(C)c3ccc(C=Cc4ccccc4)cc3CC[C@@H]12 [Example 285, (4aR)-(10bR)-4,10b-dimethyl-8-(2-phenylethenyl)-1,2,3,4,4a,5,6,10b-octahydrobenzo[f]quinolin-3-one] | 93
5 | (+)-(4aR)-(10bR)-4-methyl-8-benzyloxycarbonyl-10b-methyl-1,2,3,4,4a,5,6,10b-octahydrobenzo[f]quinolin-3-one [Example 144] | 90
